Data published in PMC10694654 (The Journal of Biological Chemistry, 2023).

B1: tagless AphAEc (periplasmic acid phosphatase AphA of Escherichia coli, His6-SUMO tag cleaved off by Ulp1) (enzyme)
chain: SPSPLNPGTNVARLAEQAPIHWVSVAQIENSLAGRPPMAVGFDIDDTVLFSSPGFWRGKKTFSPESEDYLKNPVFWEKMNNGWDEFSIPKEVARQLIDMHVRRGDAIFFVTGRSPTKTETVSKTLADNFHIPATNMNPVIFAGDKPGQNTKSQWLQDKNIRIFYGDSDNDITAARDVGARGIRILRASNSTYKPLPQAGAFGEEVIVNSEY
notes: AphA, nonspecific periplasmic acid phosphatase of Escherichia coli K-12; protein of around 25 kDa on SDS-PAGE; pET24d-his-sumo-aphAEc; linker between SUMO and aphA removed by mutagenesis; probably the mature protein as in m1 and m2; also called cleaved His6-SUMO-AphAEc; source: E. coli, purified; His6-SUMO tag cleaved off with His6-Ulp1, size-exclusion chromatography; not shown: His6-SUMO, …
B2: AphAEc-His6 (periplasmic acid phosphatase AphA of Escherichia coli, signal peptide removed, C-terminal His6 tag) (enzyme, UniProt P0AE22 26-237, looked up)
chain: SSPSPLNPGTNVARLAEQAPIHWVSVAQIENSLAGRPPMAVGFDIDDTVLFSSPGFWRGKKTFSPESEDYLKNPVFWEKMNNGWDEFSIPKEVARQLIDMHVRRGDAIFFVTGRSPTKTETVSKTLADNFHIPATNMNPVIFAGDKPGQNTKSQWLQDKNIRIFYGDSDNDITAARDVGARGIRILRASNSTYKPLPQAGAFGEEVIVNSEY
notes: AphA, nonspecific periplasmic acid phosphatase of Escherichia coli K-12; signal peptide removed from the construct; pET28a-aphAEc-his; also called AphA-His6; Ct His6-tagged AphAEc; source: E. coli, purified (Ni-NTA, size-exclusion chromatography on Superdex 200 Increase); not shown: His6, C-terminal, kept
B3: His6-AphAEc (periplasmic acid phosphatase AphA of Escherichia coli, signal peptide removed, N-terminal His6 tag) (enzyme, UniProt P0AE22 26-237, looked up)
chain: B2 chain
notes: AphA, nonspecific periplasmic acid phosphatase of Escherichia coli K-12; signal peptide removed from the construct; pET28a-his-aphAEc; also called Nt His6-tagged AphAEc; source: E. coli, purified (Ni-NTA, size-exclusion chromatography on Superdex 200 Increase); not shown: His6, N-terminal, kept

How the values were obtained:
[1] = target: T1, His6-AphAEc (Escherichia coli, UniProt P0AE22); test: DRaCALA competition against […]-cAMP; type: binding; conditions: 5 mM AMP (figure legend: 4 mM); 2 nM 32P-cAMP; 40 mM Tris pH 7.5, 100 mM NaCl, 10 mM MgCl2
T1 construct: gene aphA; signal peptide removed, N-terminal His6 kept, pET28a, expressed in E. coli; tetramer by SEC

[2] = target: T2, AphAEc-His6 (Escherichia coli, UniProt P0AE22); test: DRaCALA competition against […]-cAMP; type: binding; conditions: 5 mM AMP (figure legend: 4 mM); 2 nM 32P-cAMP; 40 mM Tris pH 7.5, 100 mM NaCl, 10 mM MgCl2
T2 construct: gene aphA; signal peptide removed, C-terminal His6 kept, pET28a, expressed in E. coli; non-natural dimer by SEC

[3] = target: T3, His6-HelHi (Haemophilus influenzae, UniProt P26093); test: pNPP phosphatase assay, A405; type: biochemical; conditions: 1 mM pNPP, 15 nM enzyme, pH 8 and 5.6
T3 construct: gene hel; N-terminal His6 kept, pET28a-his-helHi, expressed in E. coli

[4] = target: the molecule itself; test: SEC; Superdex 200 Increase 10/300 GL on an AKTA system; size estimated against standard proteins

T3 sequence (P26093 21-274): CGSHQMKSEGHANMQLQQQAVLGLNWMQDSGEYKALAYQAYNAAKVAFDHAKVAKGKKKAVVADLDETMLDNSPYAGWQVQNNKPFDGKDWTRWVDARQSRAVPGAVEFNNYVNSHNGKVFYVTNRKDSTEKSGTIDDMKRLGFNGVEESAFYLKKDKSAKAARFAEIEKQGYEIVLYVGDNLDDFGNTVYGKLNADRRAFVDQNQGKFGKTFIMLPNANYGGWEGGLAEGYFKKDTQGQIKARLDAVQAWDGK

Molecule | stoichiometry N [4] | other results
Nc1ncnc2c1ncn2[C@@H]1O[C@H](COP(=O)(O)O)[C@@H](O)[C@H]1O [AMP] | – | DRaCALA competition against 32P-cAMP [1]: the binding fractions dropped to nearly zero for AMP; DRaCALA competition against 32P-cAMP [2]: the binding fractions dropped to nearly zero for AMP
O=[N+]([O-])c1ccc(OP(=O)(O)O)cc1 [p-Nitrophenyl Phosphate] | – | pNPP phosphatase assay, A405 [3]: acid phosphatase assay of the His6-HelHi protein
B1 | 4 | –
B2 | 2 | –
B3 | 4 | –
